# Patent US11091479B2, “Triazolopyridin-3-ones or their salts and pharmaceutical compositions comprising the same” (YUHAN CORPORATION, priority 2018, dated 2021)
# Structures can show the parent of a compound that is named as a salt.
# Key:
# Type in all cases: biochemical
# [1] = molecular target: T1, recombinant human MAO-A (monoamine oxidase-A) (Homo sapiens, UniProt P21397); experiment: Activity on recombinant human MAO-A, method similar to VAP-1 assay, 0.5 mM tyramine substrate; details: read-out: Inhibitory Activity (IC50, nM) MAO-A
# T1 construct: purchased Sigma-Aldrich
# T1 sequence (P21397 1-527): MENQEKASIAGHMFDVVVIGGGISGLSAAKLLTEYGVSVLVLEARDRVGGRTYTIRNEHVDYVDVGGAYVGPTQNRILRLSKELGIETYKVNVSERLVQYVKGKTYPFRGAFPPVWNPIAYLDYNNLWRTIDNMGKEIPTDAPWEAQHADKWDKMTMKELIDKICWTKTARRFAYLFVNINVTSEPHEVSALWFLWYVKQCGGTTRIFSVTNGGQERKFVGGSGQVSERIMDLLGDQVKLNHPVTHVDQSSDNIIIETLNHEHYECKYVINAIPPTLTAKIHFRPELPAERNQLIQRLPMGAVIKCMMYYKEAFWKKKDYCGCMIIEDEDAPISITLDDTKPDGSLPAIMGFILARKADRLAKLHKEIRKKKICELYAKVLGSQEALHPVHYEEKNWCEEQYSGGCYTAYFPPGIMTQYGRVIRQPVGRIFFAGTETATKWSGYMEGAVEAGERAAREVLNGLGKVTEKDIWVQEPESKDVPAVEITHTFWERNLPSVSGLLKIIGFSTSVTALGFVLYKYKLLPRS
# Protocol: (§1) The compounds according to the present technology were evaluated in terms of activity on recombinant human VAP-1 (R&D systems) by measuring the level of hydrogen peroxide in horseradish peroxidase (HRP)-coupled reaction using Amplex Red Hydrogen Peroxide Assay Kit (Molecular Probes, Invitrogen, USA). The experiment was carried out at room temperature using benzylamine as a substrate. In the HRP-coupled reaction, hydrogen peroxide oxidation of 10-acetyl-3,7-dihydroxyphenoxazine (Amplex Red reagent) produces resorufin, which is a highly fluorescent compound. Briefly, the test compound was dissolved in dimethyl sulfoxide (DMSO) at a concentration of 20 mM. The dose-response assessment was made by 1:3 serial dilution in DMSO, thereby creating a 8 point curve. The concentration of the upper part was controlled according to the efficacy of the compounds, followed by dilution with a reaction buffer solution to obtain a final DMSO concentration of less than 1%. To each well of a 96 black well plate, human VAP-1 purified in 50 mM sodium phosphate buffer solution (pH7.4) was added. The test compounds dissolved in DMSO were incubated with the human VAP-1 enzymes at 37° C. for 30 minutes. After 30-minute incubation, each well was added with a reaction mixture containing 200 uM Amplex Red reagent prepared from 50 mM sodium phosphate buffer solution (pH 7.4), 1 mM benzylamine, and 1 U/mL HRP. Fluorescence intensity was measured at several time points during 1-2 hours using a microplate reader (Flexstation3, Molecular Devices) under the wavelength condition exciting at 544 nm and reading the emission at 590 nm. The inhibitory effect of the compounds was measured as a decrease (%) in the signal rate as compared to the control group without any inhibitor (only diluted DMSO). Data was fixed to a logistic model with four variables and IC50 value was calculated using GraphPad Prism program.
# (§2) In addition, the compounds according to the present technology were evaluated in terms of activity on a recombinant human MAO-A (monoamine oxidase-A, Sigma-Aldrich) and a recombinant human MAO-B(monoamine oxidase-B, Sigma-Aldrich) by using as substrates, 0.5 mM tyramine and 1 mM benzylamine, respectively, with a method similar to the activity evaluation method for recombinant human VAP-1. The compounds according to the present technology were also evaluated in terms of activity on a recombinant human DAO (diamine oxidase, R&D systems) by using as a substrate 1 mM putrescine with a method similar to the activity evaluation method for recombinant human VAP-1.
# [2] = molecular target: T2, recombinant human DAO (diamine oxidase) (Homo sapiens, UniProt P19801); experiment: Activity on recombinant human DAO, method similar to VAP-1 assay, 1 mM putrescine substrate; details: read-out: Inhibitory Activity (IC50, nM) DAO
# T2 construct: purchased R&D systems
# T2 sequence (P19801 20-751): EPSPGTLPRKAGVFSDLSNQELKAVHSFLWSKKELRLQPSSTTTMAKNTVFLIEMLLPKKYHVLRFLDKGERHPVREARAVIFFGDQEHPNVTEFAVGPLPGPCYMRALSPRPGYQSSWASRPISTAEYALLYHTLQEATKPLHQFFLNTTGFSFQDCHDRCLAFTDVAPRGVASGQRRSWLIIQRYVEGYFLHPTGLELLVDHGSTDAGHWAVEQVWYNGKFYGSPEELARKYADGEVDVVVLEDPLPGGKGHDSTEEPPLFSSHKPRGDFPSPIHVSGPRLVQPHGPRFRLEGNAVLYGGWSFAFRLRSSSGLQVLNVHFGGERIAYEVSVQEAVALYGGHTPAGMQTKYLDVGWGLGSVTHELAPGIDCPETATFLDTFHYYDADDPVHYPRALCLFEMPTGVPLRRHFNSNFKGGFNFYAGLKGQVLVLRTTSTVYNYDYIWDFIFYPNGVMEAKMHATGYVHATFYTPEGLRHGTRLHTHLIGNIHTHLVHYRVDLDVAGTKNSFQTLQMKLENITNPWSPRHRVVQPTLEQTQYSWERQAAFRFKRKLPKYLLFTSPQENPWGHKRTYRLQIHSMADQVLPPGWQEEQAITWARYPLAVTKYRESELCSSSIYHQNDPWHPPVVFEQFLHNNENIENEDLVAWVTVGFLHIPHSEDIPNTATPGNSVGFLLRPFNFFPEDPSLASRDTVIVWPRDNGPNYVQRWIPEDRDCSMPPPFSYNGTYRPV
# Protocol: as §1, §2
# recombinant human VAP-1 = molecular target: T3, recombinant human VAP-1 (Homo sapiens, UniProt Q16853); experiment: Activity on recombinant human VAP-1, HRP-coupled Amplex Red hydrogen peroxide assay, benzylamine substrate; details: 30 min incubation at 37° C., 1 mM benzylamine, read-out: Inhibitory Activity (IC50, nM) human VAP-1
# T3 construct: purchased R&D systems
# T3 sequence (Q16853 1-763): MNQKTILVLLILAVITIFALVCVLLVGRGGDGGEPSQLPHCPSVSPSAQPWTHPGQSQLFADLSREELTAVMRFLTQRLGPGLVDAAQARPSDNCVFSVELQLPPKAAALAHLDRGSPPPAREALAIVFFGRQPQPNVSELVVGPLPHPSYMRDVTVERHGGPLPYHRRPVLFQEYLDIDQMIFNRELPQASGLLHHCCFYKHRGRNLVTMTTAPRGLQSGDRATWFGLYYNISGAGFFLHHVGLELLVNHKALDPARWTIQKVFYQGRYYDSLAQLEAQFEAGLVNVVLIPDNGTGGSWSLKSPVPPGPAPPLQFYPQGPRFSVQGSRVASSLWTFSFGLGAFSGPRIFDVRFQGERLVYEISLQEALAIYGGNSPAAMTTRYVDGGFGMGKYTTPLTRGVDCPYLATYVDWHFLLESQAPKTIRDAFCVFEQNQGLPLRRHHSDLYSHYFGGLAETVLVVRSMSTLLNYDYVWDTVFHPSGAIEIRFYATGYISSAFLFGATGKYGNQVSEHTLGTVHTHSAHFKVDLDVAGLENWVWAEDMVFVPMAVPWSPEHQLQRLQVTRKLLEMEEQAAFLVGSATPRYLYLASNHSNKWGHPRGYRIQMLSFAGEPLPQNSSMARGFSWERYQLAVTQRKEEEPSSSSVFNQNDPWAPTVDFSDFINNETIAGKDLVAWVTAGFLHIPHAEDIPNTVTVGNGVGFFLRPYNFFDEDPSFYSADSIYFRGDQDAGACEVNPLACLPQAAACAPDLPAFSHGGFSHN
# Protocol: as §1
# [3] = molecular target: T4, recombinant human MAO-B (monoamine oxidase-B) (Homo sapiens, UniProt P27338); experiment: Activity on recombinant human MAO-B, method similar to VAP-1 assay, 1 mM benzylamine substrate; details: read-out: Inhibitory Activity (IC50, nM) MAO-B
# T4 construct: purchased Sigma-Aldrich
# T4 sequence (P27338 1-520): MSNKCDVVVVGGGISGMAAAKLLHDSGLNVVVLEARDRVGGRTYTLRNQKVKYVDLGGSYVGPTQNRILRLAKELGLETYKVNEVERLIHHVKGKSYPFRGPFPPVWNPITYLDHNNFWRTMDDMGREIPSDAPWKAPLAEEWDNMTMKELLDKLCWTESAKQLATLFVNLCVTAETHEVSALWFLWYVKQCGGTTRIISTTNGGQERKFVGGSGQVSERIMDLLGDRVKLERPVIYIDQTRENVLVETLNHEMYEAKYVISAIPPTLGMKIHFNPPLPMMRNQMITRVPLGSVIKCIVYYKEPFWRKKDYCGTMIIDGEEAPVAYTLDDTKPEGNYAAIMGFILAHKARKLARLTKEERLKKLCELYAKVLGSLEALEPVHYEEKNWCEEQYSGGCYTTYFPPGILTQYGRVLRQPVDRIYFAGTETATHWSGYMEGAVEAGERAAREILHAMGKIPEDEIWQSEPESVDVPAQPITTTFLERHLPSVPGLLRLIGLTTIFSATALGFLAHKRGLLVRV
# Protocol: as §1, §2
Compound,IC50 [1] [nM],IC50 [2] [nM],IC50 (recombinant human VAP-1) [nM],IC50 [3] [nM]
"CN(C)Cc1ccccc1-c1ccn2c(=O)n(C/C(=C/F)CN)nc2c1 [Example 23, 2-[(2E)-2-(aminomethyl)-3-fluoroprop-2-en-1-yl]-7-2-[(dimethylamino)methyl]phenyl[1,2,4]triazolo[4,3-a]pyridin-3(2H)-one hydrochloride]",> 10000,37,7,> 10000
"NC/C(=C\F)Cn1nc2cc(-c3ccc(C(=O)N4CCOCC4)cc3)ccn2c1=O [Example 24, 2-[(2E)-2-(aminomethyl)-3-fluoroprop-2-en-1-yl]-7-[4-(morpholin-4-ylcarbonyl)phenyl][1,2,4]triazolo[4,3-a]pyridin-3(2H)-one hydrochloride]",> 100000,14,0.6,> 10000
"NC/C(=C\F)Cn1nc2cc(-c3ccc(-c4ccon4)cc3)ccn2c1=O [Example 25, 2-[(2E)-2-(aminomethyl)-3-fluoroprop-2-en-1-yl]-7-[4-(1,2-oxazol-3-yl)phenyl][1,2,4]triazolo[4,3-a]pyridin-3(2H)-one hydrochloride]",18000,9.1,0.2,220
"NC/C(=C\F)Cn1nc2cc(-c3cccc(-c4cc[nH]n4)c3)ccn2c1=O [Example 26, 2-[(2E)-2-(aminomethyl)-3-fluoroprop-2-en-1-yl]-7-[3-(1H-pyrazol-3-yl)phenyl][1,2,4]triazolo[4,3-a]pyridin-3(2H)-one hydrochloride]",> 100000,1.9,0.2,< 10
"NC/C(=C\F)Cn1nc2cc(-c3ccc(-c4cnon4)cc3)ccn2c1=O [Example 27, 2-[(2E)-2-(aminomethyl)-3-fluoroprop-2-en-1-yl]-7-[4-(1,2,5-oxadiazol-3-yl)phenyl][1,2,4]triazolo[4,3-a]pyridin-3(2H)-one hydrochloride]",1450,1.8,0.6,67
"NC/C(=C\F)Cn1nc2cc(-c3cccc(-c4noc(C5CC5)n4)c3)ccn2c1=O [Example 28, 2-[(2E)-2-(aminomethyl)-3-fluoroprop-2-en-1-yl]-7-[3-(5-cyclopropyl-1,2,4-oxadiazol-3-yl)phenyl][1,2,4]triazolo[4,3-a]pyridin-3(2H)-one hydrochloride]",> 100000,5,0.5,290
"NC/C(=C\F)Cn1nc2cc(-c3ccc(-c4noc(C5CC5)n4)cc3)ccn2c1=O [Example 29, 2-[(2E)-2-(aminomethyl)-3-fluoroprop-2-en-1-yl]-7-[4-(5-cyclopropyl-1,2,4-oxadiazol-3-yl)phenyl][1,2,4]triazolo[4,3-a]pyridin-3(2H)-one hydrochloride]",44000,4,0.4,380
"NC/C(=C\F)Cn1nc2cc(-c3ccc(C(F)(F)F)nc3)ccn2c1=O [Example 30, 2-[(2E)-2-(aminomethyl)-3-fluoroprop-2-en-1-yl]-7-[6-(trifluoromethyl)pyridin-3-yl][1,2,4]triazolo[4,3-a]pyridin-3(2H)-one hydrochloride]",68000,1.1,0.3,8.4
"COc1ccc(-c2ccn3c(=O)n(C/C(=C/F)CN)nc3c2)cn1 [Example 31, 2-[(2E)-2-(aminomethyl)-3-fluoroprop-2-en-1-yl]-7-(6-methoxypyridin-3-yl)[1,2,4]triazolo[4,3-a]pyridin-3(2H)-one hydrochloride]",> 100000,5,0.3,61
"CN(C)c1ccc(-c2ccn3c(=O)n(C/C(=C/F)CN)nc3c2)cn1 [Example 32, 2-[(2E)-2-(aminomethyl)-3-fluoroprop-2-en-1-yl]-7-[6-(dimethylamino)pyridin-3-yl][1,2,4]triazolo[4,3-a]pyridin-3(2H)-one hydrochloride]",> 100000,24,0.4,19
"NC/C(=C\F)Cn1nc2cc(C3=CCNCC3)ccn2c1=O [Example 34, 2-[(2E)-2-(aminomethyl)-3-fluoroprop-2-en-1-yl]-7-(1,2,3,6-tetrahydropyridin-4-yl)[1,2,4]triazolo[4,3-a]pyridin-3(2H)-one dihydrochloride]",> 100000,1,2,> 100000
